Results published in PubChem BioAssay (NCI).
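Growth conditions: 96-well plates. Treatment: test compound, 48 hours, 5 concentrations. Analysis: linear interpolation between bracketing concentrations; unreached endpoints set to highest concentration. At the GI50, growth is halved. TGI marks complete inhibition of growth.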

Experiments:
Test in all cases: DTP human tumour cell line panel, 48 h
UO-31 renal = test system: UO-31 renal
SK-MEL-28 melanoma = test system: SK-MEL-28 melanoma
HT29 colon = test system: HT29 colon
SF-539 CNS = test system: SF-539 CNS
LOX IMVI melanoma = test system: LOX IMVI melanoma
ACHN renal = test system: ACHN renal
RXF 393 renal = test system: RXF 393 renal
COLO 205 colon = test system: COLO 205 colon
UACC-62 melanoma = test system: UACC-62 melanoma
SN12C renal = test system: SN12C renal
UACC-257 melanoma = test system: UACC-257 melanoma
SK-MEL-2 melanoma = test system: SK-MEL-2 melanoma
MOLT-4 leukemia = test system: MOLT-4 leukemia
OVCAR-5 ovarian = test system: OVCAR-5 ovarian
SF-295 CNS = test system: SF-295 CNS
786-0 renal = test system: 786-0 renal
DU-145 prostate = test system: DU-145 prostate
HCT-15 colon = test system: HCT-15 colon
NCI-H226 lung = test system: NCI-H226 lung
TK-10 renal = test system: TK-10 renal
BT-549 breast = test system: BT-549 breast
HCT-116 colon = test system: HCT-116 colon
OVCAR-8 ovarian = test system: OVCAR-8 ovarian
HS 578T breast = test system: HS 578T breast
K-562 leukemia = test system: K-562 leukemia
IGROV1 ovarian = test system: IGROV1 ovarian
SW-620 colon = test system: SW-620 colon
SNB-75 CNS = test system: SNB-75 CNS
NCI-H460 lung = test system: NCI-H460 lung
HOP-62 NSCLC = test system: HOP-62 NSCLC
CCRF-CEM leukemia = test system: CCRF-CEM leukemia
HL-60(TB) leukemia = test system: HL-60(TB) leukemia
A498 renal = test system: A498 renal
A549 NSCLC = test system: A549 NSCLC
SK-OV-3 ovarian = test system: SK-OV-3 ovarian
RPMI-8226 leukemia = test system: RPMI-8226 leukemia
U251 CNS = test system: U251 CNS
M14 melanoma = test system: M14 melanoma
T-47D breast = test system: T-47D breast
SNB-19 CNS = test system: SNB-19 CNS
OVCAR-4 ovarian = test system: OVCAR-4 ovarian
NCI-H23 lung = test system: NCI-H23 lung
SR leukemia = test system: SR leukemia
KM12 colon = test system: KM12 colon
OVCAR-3 ovarian = test system: OVCAR-3 ovarian
NCI/ADR-RES ovarian = test system: NCI/ADR-RES ovarian
SK-MEL-5 melanoma = test system: SK-MEL-5 melanoma
MALME-3M melanoma = test system: MALME-3M melanoma
HOP-92 NSCLC = test system: HOP-92 NSCLC
EKVX NSCLC = test system: EKVX NSCLC
SF-268 CNS = test system: SF-268 CNS
MCF7 breast = test system: MCF7 breast
PC-3 prostate = test system: PC-3 prostate
MDA-MB-231 breast = test system: MDA-MB-231 breast
MDA-MB-435 = test system: MDA-MB-435
CAKI-1 renal = test system: CAKI-1 renal
HCC-2998 colon = test system: HCC-2998 colon
NCI-H522 lung = test system: NCI-H522 lung

For `N#C/C(=C\c1cc2ccc(N3CCC3)cc2oc1=O)C(=O)N(CC(=O)O)CC(=O)O`, the GI50 (UO-31 renal) was greater than 100 µM, the TGI (UO-31 renal) was greater than 100 µM and the GI50 (SK-MEL-28 melanoma) was greater than 100 µM. For the same molecule, the TGI (SK-MEL-28 melanoma) was greater than 100 µM, the GI50 (HT29 colon) was greater than 100 µM and the TGI (HT29 colon) was greater than 100 µM. For the same molecule, the GI50 (SF-539 CNS) was greater than 100 µM, the TGI (SF-539 CNS) was greater than 100 µM and the GI50 (LOX IMVI melanoma) was greater than 100 µM. The TGI (LOX IMVI melanoma) was greater than 100 µM, the GI50 (ACHN renal) was greater than 100 µM and the TGI (ACHN renal) was greater than 100 µM. It also gave a GI50 (RXF 393 renal) greater than 100 µM, a TGI (RXF 393 renal) greater than 100 µM and a GI50 (COLO 205 colon) greater than 100 µM. The TGI (COLO 205 colon) was greater than 100 µM, the GI50 (UACC-62 melanoma) was greater than 100 µM and the TGI (UACC-62 melanoma) was greater than 100 µM. The GI50 (SN12C renal) was greater than 100 µM, the TGI (SN12C renal) was greater than 100 µM and the GI50 (UACC-257 melanoma) was greater than 100 µM. The TGI (UACC-257 melanoma) was greater than 100 µM, the GI50 (SK-MEL-2 melanoma) was greater than 100 µM and the TGI (SK-MEL-2 melanoma) was greater than 100 µM. It also gave a GI50 (MOLT-4 leukemia) greater than 100 µM, a TGI (MOLT-4 leukemia) greater than 100 µM and a GI50 (OVCAR-5 ovarian) greater than 100 µM. The TGI (OVCAR-5 ovarian) was greater than 100 µM, the GI50 (SF-295 CNS) was greater than 100 µM and the TGI (SF-295 CNS) was greater than 100 µM. The GI50 (786-0 renal) was greater than 100 µM, the TGI (786-0 renal) was greater than 100 µM and the GI50 (DU-145 prostate) was greater than 100 µM. The TGI (DU-145 prostate) was greater than 100 µM, the GI50 (HCT-15 colon) was 95.5 µM and the TGI (HCT-15 colon) was greater than 100 µM. The GI50 (NCI-H226 lung) was greater than 100 µM, the TGI (NCI-H226 lung) was greater than 100 µM and the GI50 (TK-10 renal) was greater than 100 µM. For the same molecule, the TGI (TK-10 renal) was greater than 100 µM, the GI50 (BT-549 breast) was greater than 100 µM and the TGI (BT-549 breast) was greater than 100 µM. For the same molecule, the GI50 (HCT-116 colon) was greater than 100 µM, the TGI (HCT-116 colon) was greater than 100 µM and the GI50 (OVCAR-8 ovarian) was greater than 100 µM. The TGI (OVCAR-8 ovarian) was greater than 100 µM, the GI50 (HS 578T breast) was greater than 100 µM and the TGI (HS 578T breast) was greater than 100 µM. For the same molecule, the GI50 (K-562 leukemia) was 97.2 µM, the TGI (K-562 leukemia) was greater than 100 µM and the GI50 (IGROV1 ovarian) was greater than 100 µM. For the same molecule, the TGI (IGROV1 ovarian) was greater than 100 µM, the GI50 (SW-620 colon) was greater than 100 µM and the TGI (SW-620 colon) was greater than 100 µM. The GI50 (SNB-75 CNS) was greater than 100 µM, the TGI (SNB-75 CNS) was greater than 100 µM and the GI50 (NCI-H460 lung) was greater than 100 µM. It also gave a TGI (NCI-H460 lung) greater than 100 µM, a GI50 (HOP-62 NSCLC) greater than 100 µM and a TGI (HOP-62 NSCLC) greater than 100 µM. It also gave a GI50 (CCRF-CEM leukemia) greater than 100 µM, a TGI (CCRF-CEM leukemia) greater than 100 µM and a GI50 (HL-60(TB) leukemia) greater than 100 µM. For the same molecule, the TGI (HL-60(TB) leukemia) was greater than 100 µM, the GI50 (A498 renal) was greater than 100 µM and the TGI (A498 renal) was greater than 100 µM. It also gave a GI50 (A549 NSCLC) greater than 100 µM, a TGI (A549 NSCLC) greater than 100 µM and a GI50 (SK-OV-3 ovarian) greater than 100 µM. For the same molecule, the TGI (SK-OV-3 ovarian) was greater than 100 µM, the GI50 (RPMI-8226 leukemia) was greater than 100 µM and the TGI (RPMI-8226 leukemia) was greater than 100 µM. The GI50 (U251 CNS) was greater than 100 µM, the TGI (U251 CNS) was greater than 100 µM and the GI50 (M14 melanoma) was greater than 100 µM. The TGI (M14 melanoma) was greater than 100 µM, the GI50 (T-47D breast) was greater than 100 µM and the TGI (T-47D breast) was greater than 100 µM. The GI50 (SNB-19 CNS) was greater than 100 µM, the TGI (SNB-19 CNS) was greater than 100 µM and the GI50 (OVCAR-4 ovarian) was greater than 100 µM. For the same molecule, the TGI (OVCAR-4 ovarian) was greater than 100 µM, the GI50 (NCI-H23 lung) was greater than 100 µM and the TGI (NCI-H23 lung) was greater than 100 µM. It also gave a GI50 (SR leukemia) greater than 100 µM, a TGI (SR leukemia) greater than 100 µM and a GI50 (KM12 colon) greater than 100 µM. The TGI (KM12 colon) was greater than 100 µM, the GI50 (OVCAR-3 ovarian) was greater than 100 µM and the TGI (OVCAR-3 ovarian) was greater than 100 µM. It also gave a GI50 (NCI/ADR-RES ovarian) greater than 100 µM, a TGI (NCI/ADR-RES ovarian) greater than 100 µM and a GI50 (SK-MEL-5 melanoma) greater than 100 µM. For the same molecule, the TGI (SK-MEL-5 melanoma) was greater than 100 µM, the GI50 (MALME-3M melanoma) was greater than 100 µM and the TGI (MALME-3M melanoma) was greater than 100 µM. It also gave a GI50 (HOP-92 NSCLC) greater than 100 µM, a TGI (HOP-92 NSCLC) greater than 100 µM and a GI50 (EKVX NSCLC) greater than 100 µM. For the same molecule, the TGI (EKVX NSCLC) was greater than 100 µM, the GI50 (SF-268 CNS) was greater than 100 µM and the TGI (SF-268 CNS) was greater than 100 µM. For the same molecule, the GI50 (MCF7 breast) was greater than 100 µM, the TGI (MCF7 breast) was greater than 100 µM and the GI50 (PC-3 prostate) was greater than 100 µM. It also gave a TGI (PC-3 prostate) greater than 100 µM, a GI50 (MDA-MB-231 breast) greater than 100 µM and a TGI (MDA-MB-231 breast) greater than 100 µM. The GI50 (MDA-MB-435) was greater than 100 µM, the TGI (MDA-MB-435) was greater than 100 µM and the GI50 (CAKI-1 renal) was greater than 100 µM. For the same molecule, the TGI (CAKI-1 renal) was greater than 100 µM, the GI50 (HCC-2998 colon) was greater than 100 µM and the TGI (HCC-2998 colon) was greater than 100 µM. For the same molecule, the GI50 (NCI-H522 lung) was greater than 100 µM and the TGI (NCI-H522 lung) was greater than 100 µM.
